Results from paper PMC9020739, “Identification of a two-component regulatory system involved in antimicrobial peptide resistance in Streptococcus pneumoniae” (PLoS Pathogens, 2022).
In brackets after ≈: the same amount, converted by molar mass. Where a SMILES comes first, the peptide text is derived from it. Bridges are numbered along the chain shown (N, C = ends). [ ]: non-standard residue; d: D form. The star is where a group is joined. Ileψ(thiazoline)Cys = CC[C@H](C)[C@H](N)C1=N[C@H](C(=O)*)CS1; dOrn = NCCC[C@@H](N)C(=O)O

Tests used:
[1] = test system: S. pneumoniae R6 mutant strains (ΔbceAB, Δtcs01, ΔbceAB/tcs01); assay: Growth of wild-type and mutant strains in microplates with bacitracin; format: cell-based, Streptococcus pneumoniae; conditions: Todd-Hewitt broth, various bacitracin concentrations, 4 biological replicates (Fig 1)
Procedure: (§1) The MIC of various antimicrobial peptides for R6, R800 and D39 strains was determined by classical 2-fold broth dilution method. Cells were first grown in Todd-Hewitt medium at 37°C without agitation and in anaerobic conditions until the absorbance reaches approximatively 0.3. Complementation strains were grown with 0.5 μM ComS inducer until the appropriate OD. Cells were then diluted at final OD600nm = 0.002 in 96-well plates containing 300 μL of Todd-Hewitt medium (and 2 μM ComS inducer for the complementation strains) with serial dilutions of antimicrobial peptides. Pneumococcal growth was monitored by a microplate reader (TECAN) at 37°C without agitation. The absorbance was followed at 600 nm every 15 min for 15 h.

[2] = test system: S. pneumoniae R800 bceAB-gfp; format: cell-based, Streptococcus pneumoniae; conditions: R800 strain; 2-fold broth dilution, Todd-Hewitt medium, 37°C, 15 h; at least biological triplicates, each technical duplicates
Procedure: as §1

[3] = test system: S. pneumoniae R6 ΔbceAB/tcs01; format: cell-based, Streptococcus pneumoniae; conditions: R6 strain; 2-fold broth dilution, Todd-Hewitt medium, 37°C, 15 h; two to four biological replicates, each technical duplicates
Procedure: as §1

S. pneumoniae R800 Δhk01 = format: cell-based, Streptococcus pneumoniae; conditions: R800 strain; 2-fold broth dilution, Todd-Hewitt medium, 37°C, 15 h; at least biological triplicates, each technical duplicates
Procedure: as §1

S. pneumoniae D39 ΔbceAB = format: cell-based, Streptococcus pneumoniae; conditions: D39 strain; 2-fold broth dilution, Todd-Hewitt medium, 37°C, 15 h; two to four biological replicates, each technical duplicates
Procedure: as §1

S. pneumoniae R800 WT = format: cell-based, Streptococcus pneumoniae; conditions: R800 strain; 2-fold broth dilution, Todd-Hewitt medium, 37°C, 15 h; at least biological triplicates, each technical duplicates
Procedure: as §1

[4] = test system: S. pneumoniae R800 ΔbceAB-Δhk01-PcomX-hk01; format: cell-based, Streptococcus pneumoniae; conditions: R800 complementation strain, 2 μM ComS inducer; 2-fold broth dilution, Todd-Hewitt medium, 37°C, 15 h; at least biological triplicates, each technical duplicates
Procedure: as §1

S. pneumoniae R6 Δtcs01 = format: cell-based, Streptococcus pneumoniae; conditions: R6 strain; 2-fold broth dilution, Todd-Hewitt medium, 37°C, 15 h; two to four biological replicates, each technical duplicates
Procedure: as §1

S. pneumoniae R6 WT = format: cell-based, Streptococcus pneumoniae; conditions: R6 strain
Procedure: as §1

S. pneumoniae D39 WT = format: cell-based, Streptococcus pneumoniae; conditions: D39 strain
Procedure: as §1

[5] = test system: S. pneumoniae R800 ΔbceAB; format: cell-based, Streptococcus pneumoniae; conditions: R800 strain; 2-fold broth dilution, Todd-Hewitt medium, 37°C, 15 h; at least biological triplicates, each technical duplicates
Procedure: as §1

[6] = test system: S. pneumoniae D39 ΔbceAB/tcs01; format: cell-based, Streptococcus pneumoniae; conditions: D39 strain; 2-fold broth dilution, Todd-Hewitt medium, 37°C, 15 h; two to four biological replicates, each technical duplicates
Procedure: as §1

S. pneumoniae D39 Δtcs01 = format: cell-based, Streptococcus pneumoniae; conditions: D39 strain; 2-fold broth dilution, Todd-Hewitt medium, 37°C, 15 h; two to four biological replicates, each technical duplicates
Procedure: as §1

[7] = test system: S. pneumoniae R800 Δhk01-PcomX-hk01; format: cell-based, Streptococcus pneumoniae
Procedure: as §1

[8] = target: BceAB transporter from S. pneumoniae (Streptococcus pneumoniae, UniProt A0A0H2ZN40); format: biochemical; conditions: 5 mM nucleotide, 300 μg/mL bacitracin
Procedure: E. coli BL21(DE3) cells were transformed with pRSF-Duet1-BceAB WT, K48A or E170Q and selected on LB-agar plates containing 50 μg/mL kanamycin. One colony was inoculated into in 2L-baffled flasks containing 500 mL of 2YT medium and 50 μg/mL kanamycin and grown at 37°C, 180 rpm to OD600 of 0.6. Protein expression was induced by adding IPTG to a final concentration of 1 mM. Induction was performed overnight at 25°C and cells were harvested by centrifugation at 7,000 g for 20 min.
Cells were resuspended in buffer A (HEPES-NaOH 100 mM pH 8.0, NaCl 150 mM) and lysed by passaging them three times through a cell disruptor (Microfluidizer, Microfluidics) at 18,000 psi (or 1,24 x 108 Pa). Undisrupted cells and cell debris were removed by centrifugation at 15,000 x g for 30 min at 4°C. Membranes were harvested from the supernatant after ultracentrifugation at 150,000 x g for 1 h at 4°C. Membranes were resuspended in 20 mL of buffer A and centrifuged once again at 150,000 x g for 1 h at 4°C. Membrane pellets were homogenized in buffer HEPES-NaOH 100 mM pH 8.0, NaCl 150 mM and 20% glycerol, and stored at -80°C.
For the purification of BceAB, membranes from 0,5 L cell culture were diluted in buffer B (100 mM d’HEPES-NaOH pH 8, 150 mM NaCl, 10% glycerol) to a protein concentration of 4 mg/mL and solubilized with 0.5% (w/v) LMNG for 2 h at 4°C. After ultracentrifugation at 150,000 x g for 1 h at 4°C, the supernatant containing solubilized proteins was diluted four times using buffer B and loaded on Ni^2+-charged immobilized metal-ion affinity chromatography (IMAC) column (1 mL HisTrap HP, Cytiva). The column was washed with 10 mL of buffer B containing 0.005% (w/v) LMNG and 20 mM of imidazole. The column was further washed with the same buffer until OD280nm reached basal levels. BceAB was eluted by buffer B containing 0.005% (w/v) LMNG and an imidazole gradient from 20 to 500 mM of imidazole. Purified BceAB was dialyzed into buffer B containing 0.005% (w/v) LMNG and stored at -80°C.
The proteoliposomes were prepared as previously described for the transporter BmrA [50]. Proteoliposomes were loaded on sucrose gradient with different layers of 400 μL of 50 mM HEPES-KOH pH 8.0 buffer containing 30, 20, 15 or 10% of sucrose. One mL of proteoliposomes was loaded on the top of the sucrose gradient and ultra-centrifuged at 200,000 x g for 12 h at 4°C. Proteoliposomes were typically collected from the 15% layer and were loaded on SDS-PAGE to analyze and quantify the presence of BceAB by using a standard-curve of purified BceAB and ImageJ.
These activities were performed as previously described.

Q: Which “Growth of the mutant strains” value [1] does the source give for CC[C@H](C)[C@H](N)C1=N[C@H](C(=O)N[C@@H](CC(C)C)C(=O)N[C@H](CCC(=O)O)C(=O)N[C@H](C(=O)N[C@H]2CCCCNC(=O)[C@H](CC(N)=O)NC(=O)[C@@H](CC(=O)O)NC(=O)[C@H](Cc3cnc[nH]3)NC(=O)[C@@H](Cc3ccccc3)NC(=O)[C@H]([C@@H](C)CC)NC(=O)[C@@H](CCCN)NC2=O)[C@@H](C)CC)CS1 [bacitracin] ({Ileψ(thiazoline)Cys}-L[dE]IK[dOrn]I[dF]H[dD]N; lactam 4-C (inferred); N-terminus assumed) here?
A: severely impaired

Q: And the “MIC, bceAB-gfp” value [2]?
A: 4 µg/mL (≈ 2.81 µM)

Q: And the “Minimum Inhibitory Concentration, ΔbceAB/tcs01” value [3]?
A: 1 µg/mL

Q: What about the “MIC, Δhk01” value (S. pneumoniae R800 Δhk01) of the same compound?
A: 1 µg/mL (≈ 0.703 µM)

Q: What about the “Minimum Inhibitory Concentration, ΔbceAB” value (S. pneumoniae D39 ΔbceAB) of the same compound?
A: 1 µg/mL

Q: And the “MIC, WT” value (S. pneumoniae R800 WT)?
A: 4 µg/mL (≈ 2.81 µM)

Q: And the “MIC, ΔbceAB-Δhk01-PcomX-hk01” value [4]?
A: 1 µg/mL (≈ 0.703 µM)

Q: And the “Minimum Inhibitory Concentration, Δtcs01” value (S. pneumoniae R6 Δtcs01)?
A: 1 µg/mL

Q: What about the “Minimum Inhibitory Concentration, WT” value (S. pneumoniae R6 WT; 2-fold broth dilution, Todd-Hewitt medium, 96-well plates, start OD600 0.002, 37°C, A600 followed 15 h, two to four biological replicates, each technical duplicates) of the same compound?
A: 8 µg/mL

Q: What about the “Fold sensitivity displayed by the KO strains” value (S. pneumoniae R6 WT; KO strains versus WT MIC) of the same compound?
A: 8

Q: And the “Minimum Inhibitory Concentration, WT” value (S. pneumoniae D39 WT; 2-fold broth dilution, Todd-Hewitt medium, 37°C, 15 h, two to four biological replicates, each technical duplicates)?
A: 4 µg/mL

Q: What about the “Fold sensitivity diplayed by the KO strains” value (S. pneumoniae D39 WT; KO strains versus WT MIC) of the same compound?
A: 4

Q: And the “MIC, ΔbceAB” value [5]?
A: 1 µg/mL (≈ 0.703 µM)

Q: What about the “Minimum Inhibitory Concentration, ΔbceAB/tcs01” value [6] of the same compound?
A: 1 µg/mL

Q: And the “Minimum Inhibitory Concentration, Δtcs01” value (S. pneumoniae D39 Δtcs01)?
A: 1 µg/mL

Q: What about the “Resistance as compared to the WT strain” value ([7]; R800-Δhk01-PcomX-rr01-hk01 versus R800 WT, from MICs) of the same compound?
A: 64 fold

Q: And the “MIC, Δhk01-PcomX-hk01” value ([7]; R800 complementation strain, 2 μM ComS inducer, 2-fold broth dilution, Todd-Hewitt medium, 37°C, 15 h, at least biological triplicates, each technical duplicates)?
A: 256 µg/mL (≈ 180 µM)

Q: What about the “ATPase activity of wild-type BceAB stimulated by bacitracin” value ([8]; after reconstitution in liposomes, calculated on total protein added to the reconstitution mixture) of the same compound?
A: 0.6–1 μmol of ATP hydrolyzed/min/mg

Q: What about the “Specific ATPase activity of wild-type BceAB in the presence of bacitracin” value ([8]; proteoliposomes further separated on sucrose gradient) of the same compound?
A: up to 2 μmol ATP hydrolyzed/min/mg
